Measured values reported in US11002728B2, “Method for evaluating activity of G protein-coupled receptor (GPCR)” (RIKEN, priority 2017, dated 2021).
Blank lines part the entries; values can stand above or below the compound they belong to.

Experiments:
[1] = biological target: T1, FFAR4 (Homo sapiens, UniProt Q5NUL3); test: Single-molecule imaging of GPCR diffusive dynamics (DAv) in HEK293 cells; assay type: cell-based; settings: 100 nM ligand, mean ± standard error, n=20 cells, vehicle 0.083
T1 construct: host or cells: HEK293
T1 sequence (Q5NUL3 1-361): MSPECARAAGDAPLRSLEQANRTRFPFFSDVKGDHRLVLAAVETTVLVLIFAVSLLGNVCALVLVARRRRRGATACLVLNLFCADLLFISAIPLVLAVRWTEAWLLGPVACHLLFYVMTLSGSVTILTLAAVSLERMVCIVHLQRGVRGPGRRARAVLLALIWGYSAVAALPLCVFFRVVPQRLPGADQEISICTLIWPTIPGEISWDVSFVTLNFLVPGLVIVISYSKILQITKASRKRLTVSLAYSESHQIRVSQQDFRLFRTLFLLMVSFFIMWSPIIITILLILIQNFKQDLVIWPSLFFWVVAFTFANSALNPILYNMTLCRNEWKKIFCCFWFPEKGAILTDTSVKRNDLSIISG
Experimental: (§1) HEK293 cells were cultured in a DMEM/F12 (Gibco) medium added with 15 mM HEPES (pH 7.3), 29 mM NaHCO3, and 10% FBS at 37° C. in an environment containing 5% CO2. On the day before the observation, the HEK293 cells on a 60-mm dish (IWAKI) with a cover glass (Matsunami Glass Ind., Ltd.) were transfected with a plasmid DNA (pDNA) of HaloTag-fused mGluR3 using Lipofectamine 3000 (Invitrogen). A transfection reagent and pDNA (pDNA (0.1 μg), P3000 reagent (0.2 μL), Lipofectamine 3000 reagent (2.5 μL), Opti-MEM (120 μL, Gibco)) were mixed, and the mixture was then left to stand at room temperature for 15 minutes and was added to HEK293 cells on the 60-mm dish containing DMEM/F12 (3 mL). […] After culturing at 37° C. in an environment containing 5% CO2 for 3 hours, the medium was replaced with DMEM (3 mL, Sigma) not containing phenol red and containing 10% FBS. […] TMR-labeled mGluR3 on the cell membranes of the HEK293 cells were excited with total internal reflection illumination on an inverted fluorescence microscope (TE2000, Nikon Corporation), and single-molecule imaging was performed. […]

[2] = biological target: T2, mGluR3 (Mus musculus, UniProt Q9QYS2); test: Two-color single-molecule imaging, colocalization of TMR-labeled mGluR3 and GFP-labeled CLC; assay type: cell-based; design: expressed in transfected cells; host or cells: HEK293 (pCAG-GS vector); settings: active (100 μM LY379268) versus inactive state (100 nM LY341495)
Text: Colocalization of TMR-labeled mGluR3 and GFP-labeled CLC was defined as a track in which each bright spot was within 100 nm in the same frame. The positional accuracy of the bright spot tracking of TMR-labeled mGluR3 and GFP-labeled CLC was estimated to be 28 nm and 31 nm, respectively, from measurement of fixed samples. These values correspond to 1 SD of the displacement when fixed molecules were tracked. After image processing, the error between the positions of the same gold particle in two channels was estimated to be 18 nm. Accordingly, 100 nm corresponds to about 2 SD of the positional accuracy considering the total error. The time constant of colocalization was calculated by fitting the cumulative frequency distribution (FIG. 9(f)) by Expression 8.
The proportion of each component was calculated from the proportions of A1 and A2.

[3] = biological target: T2, mGluR3; test: [3H]-LY341495 binding experiment, HEK293 membrane fraction expressing mGluR3
Experimental: HEK293 cells cultured to about 40% confluence in a 100-mm dish were transfected with mGluR3 pDNA and an empty pCAG vector as a mock each at 10 μg/dish by a calcium phosphate method. After the transfection, the cells were cultured in DMEM/F12 medium containing 10% FBS for 48 hours and were then collected, followed by centrifugation. The precipitation was washed with 1 mL of PBS (pH 7.4). Centrifugation was further performed. The precipitation was placed in a 1.5-mL tube and was homogenized with a pellet mixer in buffer A (50 mM HEPES (pH 6.5), 140 mM NaCl) in which 50% sucrose was dissolved, followed by centrifugation to separate supernatant and precipitate. […]
A cell membrane fraction containing mGluR3 was resuspended in HBSS (containing 15 mM HEPES (pH 7.1) and not containing NaHCO3, Sigma) having the same composition as that used in the single-molecule measurement, and the binding of [^3H]-LY341495 to the membrane was measured at room temperature. […] Each dot was excised from the nitrocellulose membrane and was placed in a cocktail for a liquid scintillation counter (Ultima Gold, PerkinElmer Life Sciences, Inc.), and the binding amount of [^3H]-LY341495 was quantified with LS6500 (Beckman Coulter). […] Kd was calculated from fitting result by an expression obtained by replacing the EC50 in Expression 3 mentioned above with kd. […] The IC50 was calculated based on Expression 4.

[4] = biological target: T2, mGluR3; test: Single-molecule imaging of mGluR3 diffusive dynamics (MSD, DAv, VB-HMM diffusion states) in HEK293 cells; settings: for IC50: IC50 of the LY379268 dependent change of DAv; for change of MSD of mGluR3: MSD-Δt plots, FIG. 1(c to e)
Experimental: A DNA sequence encoding HaloTag7 (Promega Corporation) was amplified by PCR and was fused to the C-terminal sequence of mouse mGluR3 using In-Fusion HD Cloning Kit (Clontech Laboratories, Inc.). In order to quantify the expression level of HaloTag-fused mGluR3 by Western blotting, the epitope sequence of a monoclonal antibody Rho 1D4 recognizing the C-terminus of bovine rhodopsin was added immediately after the HaloTag sequence. Complementary DNAs of mGluR3 were inserted into a pCAG-GS vector^21.
HEK293 cells were cultured in a DMEM/F12 (Gibco) medium added with 15 mM HEPES (pH 7.3), 29 mM NaHCO3, and 10% FBS at 37° C. in an environment containing 5% CO2. On the day before the observation, the HEK293 cells on a 60-mm dish (IWAKI) with a cover glass (Matsunami Glass Ind., Ltd.) were transfected with a plasmid DNA (pDNA) of HaloTag-fused mGluR3 using Lipofectamine 3000 (Invitrogen). A transfection reagent and pDNA (pDNA (0.1 μg), P3000 reagent (0.2 μL), Lipofectamine 3000 reagent (2.5 μL), Opti-MEM (120 μL, Gibco)) were mixed, and the mixture was then left to stand at room temperature for 15 minutes and was added to HEK293 cells on the 60-mm dish containing DMEM/F12 (3 mL). In two-color single-molecule measurement, pDNA (0.02 μg) of GFP-fused CLC was transfected together with HaloTag-fused mGluR3. After culturing at 37° C. in an environment containing 5% CO2 for 3 hours, the medium was replaced with DMEM (3 mL, Sigma) not containing phenol red and containing 10% FBS. After culturing overnight, the medium was replaced with 3 mL of DMEM containing 300 nM HaloTag TMR ligand (Promega Corporation) and not containing phenol red and FBS, followed by being left to stand at 37° C. in an environment containing 5% CO2 for 30 minutes to specifically stain the HaloTag-fused mGluR3 of the HEK293 cells. […] In single-molecule imaging, the cover glass was placed in a metal chamber (Invitrogen) and was washed with 400 μL of Hanks' balanced salt solution (HBSS (Sigma); containing 15 mM HPEPS (pH 7.1) and not containing NaHCO3) five times, followed by observation at room temperature (25° C.). TMR-labeled mGluR3 on the cell membranes of the HEK293 cells were excited with total internal reflection illumination on an inverted fluorescence microscope (TE2000, Nikon Corporation), and single-molecule imaging was performed. […] The fluorescences of TMR and GFP were wavelength dependently separated with dichroic mirror 59004b (Chroma) in a two-optical path branching system (M202J, Nikon Corporation), were allowed to pass through a band pass filter (GFP: ET525/50m, TMR: ET605/70m, Chroma), and were then photographed simultaneously by two EM-CCD cameras (ImagEM, Hamamatsu Photonics K.K.).

[5] = biological target: T2, mGluR3; test: [35S]-GTPγS binding experiment (G protein activation ability of mGluR3, purified Go protein); assay type: biochemical; design: expressed in transfected cells; host or cells: HEK293 (pCAG-GS vector)
Experimental: Each mixture was left to stand at 20° C. for 30 minutes. [^35S]-GTPγS was added to the mixture to start GDP/GTPγS exchange reaction. The composition except the ligand of the final mixture solution (20 μL) was 50 mM HEPES (pH 6.5), 140 mM NaCl, 5 mM MgCl2, 0.01% DM, 0.03% sodium cholate, 5 nM [^35S]-GTPγS, 500 nM GTPγS (cold), and 500 nM GDP. A reaction stop solution (200 μL, 20 mM Tris/Cl (pH 7.4), 100 mM NaCl, 25 mM MgCl2, 500 nM GTPγS (cold), and 500 nM GDP) was added to the mixture solution at 30 seconds after the addition of [^35S]-GTPγS to stop the incorporation of [^35S]-GTPγS into G protein, and immediately all the reaction solution was passed through a nitrocellulose membrane with the dot-blot apparatus to separate [^35S]-GTPγS bound to G protein. Subsequently, the nitrocellulose membrane was washed with buffer C (200 μL, 20 mM Tris/Cl (pH 7.4), 100 mM NaCl, and 25 mM MgCl2) three times and was dried for 1 hour. Each dot was excised from the nitrocellulose membrane and was placed in a cocktail for a liquid scintillation counter (Ultima Gold, PerkinElmer Life Sciences, Inc.), and the binding amount of [^35S]-GTPγS was quantified with LS6500 (Beckman Coulter).

[6] = biological target: HRH1 (Homo sapiens, UniProt P35367); settings: HRH1 in HEK293 cells, 1 μM ligand, mean ± standard error, n=20 cells; vehicle 0.064
[7] = biological target: HTR2A (Homo sapiens, UniProt P28223); test: Single-molecule imaging of GPCR diffusive dynamics (DAv) in HEK293 cells; assay type: cell-based; settings: 10 μM ligand, mean ± standard error, n=20 cells, vehicle 0.079
[8] = biological target: T3, CXCR4 (Homo sapiens, UniProt P61073); test: as above; assay type: cell-based; settings: 20 nM ligand, mean ± standard error, n=20 cells, vehicle 0.087
T3 construct: host or cells: HEK293
Experimental: as §1

[9] = biological target: F2R (Homo sapiens, UniProt P25116); settings: F2R in HEK293 cells, 10 μM ligand, mean ± standard error, n=20 cells; vehicle 0.084
Chain of F2R (P25116 22-425): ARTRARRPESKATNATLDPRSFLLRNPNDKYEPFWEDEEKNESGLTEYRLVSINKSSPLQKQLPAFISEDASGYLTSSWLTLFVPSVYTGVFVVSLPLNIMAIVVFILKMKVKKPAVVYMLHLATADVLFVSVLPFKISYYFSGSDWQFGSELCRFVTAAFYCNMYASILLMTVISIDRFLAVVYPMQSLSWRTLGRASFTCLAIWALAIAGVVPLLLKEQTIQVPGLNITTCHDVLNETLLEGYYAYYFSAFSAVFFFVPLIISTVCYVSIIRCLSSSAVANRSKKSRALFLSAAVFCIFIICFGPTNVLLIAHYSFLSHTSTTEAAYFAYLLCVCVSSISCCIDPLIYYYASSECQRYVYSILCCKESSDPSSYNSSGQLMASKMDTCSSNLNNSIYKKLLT

T2 sequence (Q9QYS2 23-879): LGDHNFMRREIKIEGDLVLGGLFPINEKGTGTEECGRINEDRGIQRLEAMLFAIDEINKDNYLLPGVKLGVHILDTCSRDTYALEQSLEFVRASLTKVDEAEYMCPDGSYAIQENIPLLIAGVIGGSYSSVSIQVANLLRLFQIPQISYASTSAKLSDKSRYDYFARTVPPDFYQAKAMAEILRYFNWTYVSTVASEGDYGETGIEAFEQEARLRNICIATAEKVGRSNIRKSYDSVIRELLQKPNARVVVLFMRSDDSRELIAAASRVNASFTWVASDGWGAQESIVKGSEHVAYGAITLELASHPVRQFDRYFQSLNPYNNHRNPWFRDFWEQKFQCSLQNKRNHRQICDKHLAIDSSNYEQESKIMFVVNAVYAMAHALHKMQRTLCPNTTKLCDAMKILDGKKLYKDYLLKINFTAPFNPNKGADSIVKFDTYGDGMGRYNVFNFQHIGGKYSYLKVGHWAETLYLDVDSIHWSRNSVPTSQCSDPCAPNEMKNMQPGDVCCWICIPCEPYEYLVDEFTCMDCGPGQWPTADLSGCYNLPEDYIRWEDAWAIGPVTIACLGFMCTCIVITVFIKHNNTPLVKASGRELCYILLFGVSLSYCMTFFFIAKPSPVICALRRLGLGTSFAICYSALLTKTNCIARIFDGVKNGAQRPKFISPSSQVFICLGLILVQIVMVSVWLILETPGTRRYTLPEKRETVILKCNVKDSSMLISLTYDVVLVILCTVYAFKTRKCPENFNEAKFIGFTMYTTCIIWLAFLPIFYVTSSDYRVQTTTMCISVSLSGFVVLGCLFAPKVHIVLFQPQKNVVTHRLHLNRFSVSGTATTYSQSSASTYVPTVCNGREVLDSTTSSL
Chain of HTR2A (P28223 whole entry): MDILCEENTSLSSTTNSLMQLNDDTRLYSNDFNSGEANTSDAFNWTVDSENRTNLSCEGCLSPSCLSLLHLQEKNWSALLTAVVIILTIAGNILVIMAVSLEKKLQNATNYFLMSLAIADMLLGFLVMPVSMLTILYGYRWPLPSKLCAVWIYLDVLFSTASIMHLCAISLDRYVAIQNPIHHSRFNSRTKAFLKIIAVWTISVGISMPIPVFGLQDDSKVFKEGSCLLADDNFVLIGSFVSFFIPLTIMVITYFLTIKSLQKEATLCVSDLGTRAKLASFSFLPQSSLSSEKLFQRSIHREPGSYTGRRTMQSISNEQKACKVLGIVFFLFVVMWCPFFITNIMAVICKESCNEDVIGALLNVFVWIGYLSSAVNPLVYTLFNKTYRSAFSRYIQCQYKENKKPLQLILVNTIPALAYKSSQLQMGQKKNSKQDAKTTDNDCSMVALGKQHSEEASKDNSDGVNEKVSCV
T3 sequence (P61073 whole entry): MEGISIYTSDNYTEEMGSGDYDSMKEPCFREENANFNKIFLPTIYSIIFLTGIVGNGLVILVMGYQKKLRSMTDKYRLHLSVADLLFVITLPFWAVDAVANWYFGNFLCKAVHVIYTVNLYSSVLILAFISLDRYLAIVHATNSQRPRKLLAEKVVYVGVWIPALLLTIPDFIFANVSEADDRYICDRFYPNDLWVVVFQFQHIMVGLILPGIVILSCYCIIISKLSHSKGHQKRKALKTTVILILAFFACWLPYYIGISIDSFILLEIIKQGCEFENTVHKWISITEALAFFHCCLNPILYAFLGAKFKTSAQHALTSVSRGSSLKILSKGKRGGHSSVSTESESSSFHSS
Chain of HRH1 (P35367 whole entry): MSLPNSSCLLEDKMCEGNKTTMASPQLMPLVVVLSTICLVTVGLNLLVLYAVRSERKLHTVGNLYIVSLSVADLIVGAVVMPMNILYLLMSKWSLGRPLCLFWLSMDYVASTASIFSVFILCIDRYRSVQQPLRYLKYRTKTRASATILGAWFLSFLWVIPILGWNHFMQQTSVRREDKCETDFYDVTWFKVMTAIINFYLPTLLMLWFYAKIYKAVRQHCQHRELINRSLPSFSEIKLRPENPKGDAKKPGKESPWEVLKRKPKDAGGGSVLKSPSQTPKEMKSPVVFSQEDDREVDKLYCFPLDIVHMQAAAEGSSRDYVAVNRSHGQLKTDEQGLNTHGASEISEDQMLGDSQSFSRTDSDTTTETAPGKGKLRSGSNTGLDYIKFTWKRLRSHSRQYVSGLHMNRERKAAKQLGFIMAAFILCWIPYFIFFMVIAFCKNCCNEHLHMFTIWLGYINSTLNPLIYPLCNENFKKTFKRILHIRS

DAv, Ligand [1]: 0.048 ± 0.0073 μm^2/s
Compound: CC/C=C\C/C=C\C/C=C\C/C=C\C/C=C\C/C=C\CCC(=O)O [DHA]

increase in the colocalization probability of mGluR3 and CLC ([2]; FIG. 10(e)): about 1.6 fold
increase of the Long-time constant of colocalization of mGluR3 and CLC ([2]; FIG. 10(g)): about two-fold
IC50 [3]: 550 ± 80 nM
IC50 ([4]; FIG. 4(a), absence of other ligands, n=20 cells): 1190 ± 20 nM
IC50 ([4]; FIG. 4(b), presence of 100 nM LY341495, n=20 cells): 1030 ± 80 nM
change of MSD of mGluR3 ([4]; n=20 cells): decreased depending on the concentration
DAv, Ligand ([4]; mGluR3 in HEK293 cells, 100 μM ligand, mean ± standard error, n=20 cells, vehicle 0.047): 0.039 ± 0.0018 μm^2/s
EC50 ([5]; absence of other ligands, FIG. 4(e), n=3, read-out: EC50 of the LY379268-dependent increase of the G protein activation ability of mGluR3): 25 ± 2.9 nM
Compound: N[C@@]1(C(=O)O)CO[C@H]2[C@H](C(=O)O)[C@H]21 [LY379268]
ligand-dependent change of the proportions of the diffusion states (VB-HMM) ([4]; concentration dependent, FIG. 5(c, d)): increases in the immobile and slow states and a decrease in the fast state

DAv, Ligand [6]: 0.045 ± 0.0025 μm^2/s
Compound: NCCc1c[nH]cn1 [histamine]

DAv, Ligand [7]: 0.065 ± 0.0034 μm^2/s
Compound: NCCc1c[nH]c2ccc(O)cc12 [serotonine]

Compound: CXCL12: chemokine, agonist used on CXCR4
DAv, Ligand [8]: 0.068 ± 0.0017 μm^2/s

Compound: MNI137
influence on the binding affinity of LY379268 ([3]; 1 μM MNI137, competition with 100 nM [3H]-LY341495, FIG. 4(d)): did not influence the binding affinity of LY379268
effect on LY379268 concentration-dependent change of DAv ([4]; 1 μM, presence of 100 nM LY341495, FIG. 4(b)): the LY379268 concentration-dependent decrease of DAv was suppressed
change of MSD of mGluR3 ([4]; n=20 cells): the LY379268-dependent decrease of the MSD was suppressed
effect on LY379268-dependent G protein activation ability ([5]; 1 μM MNI137, 100 nM LY341495 present, FIG. 4(f)): suppresses the LY379268-dependent increase of G protein activation ability

Compound: TRAP-6
DAv, Ligand [9]: 0.060 ± 0.0017 μm^2/s
